In US8299302B2 (priority 2007, dated 2012):
Where two headings read alike, the source gives them in different places.

How the values were obtained:
Botrytis cinerea = test: Botrytis test (bean) / protective; assay type: in vivo; conditions: 48 h, read-out: efficacy
Description: (§1) To produce a suitable preparation of active compound, 1 part by weight of active compound is mixed with the stated amounts of solvent and emulsifier, and the concentrate is diluted with water to the desired concentration.
To test for protective activity, young plants are sprayed with the active compound preparation at the stated application rate. After the spray coating has dried on, 2 small pieces of agar overgrown with Botrytis cinerea are placed on each leaf. The inoculated plants are then placed in a darkened chamber at about 20° C. and 100% relative atmospheric humidity.
Two days after the inoculation the size of the infected spots on the leaves is evaluated. 0% means an efficacy which corresponds to that of the control, whereas an efficacy of 100% means that no infection is observed.

Podosphaera leucotricha = test: Podosphaera test (apple) / protective; assay type: in vivo; conditions: 240 h, read-out: efficacy
Description: as §1
(§2) To test for protective activity, young plants are sprayed with the active compound preparation at the stated application rate. After the spray coating has dried on, the plants are inoculated with an aqueous spore suspension of the apple mildew pathogen Podosphaera leucotricha. The plants are then placed in a greenhouse at about 23° C. and a relative atmospheric humidity of about 70%.
(§3) Evaluation is carried out 10 days after the inoculation. 0% means an efficacy which corresponds to that of the control, whereas an efficacy of 100% means that no infection is observed.

Uromyces appendiculatus = test: Uromyces test (bean) / protective; assay type: in vivo; conditions: 240 h, read-out: efficacy
Description: as §1
To test for protective activity, young plants are sprayed with the active compound preparation at the stated application rate. After the spray coating has dried on, the plants are inoculated with an aqueous spore suspension of the bean rust pathogen Uromyces appendiculatus and then remain in an incubation cabin at about 20° C. and 100% relative atmospheric humidity for 1 day.
The plants are then placed in a greenhouse at about 21° C. and a relative atmospheric humidity of about 90%.
as §3

Puccinia recondita = test: Puccinia test (wheat) / protective; assay type: in vivo; conditions: 240 h, read-out: efficacy
Description: as §1
To test for protective activity, young plants are sprayed with the active compound preparation at the stated application rate. After the spray coating has dried on, the plants are sprayed with a conidia suspension of Puccinia recondita. The plants remain in an incubation cabin at 20° C. and 100% relative atmospheric humidity for 48 hours.
The plants are then placed in a greenhouse at a temperature of about 20° C. and a relative atmospheric humidity of 80% to promote the development of rust pustules.
as §3

Sphaerotheca fuliginea = test: Sphaerotheca test (cucumber) / protective; assay type: in vivo; conditions: Podosphaera fuliginea, 168 h, read-out: efficacy
Description: as §1
as §2, with “dried,” for “dried on,”, “Sphaerotheca fuliginea.” for “the apple mildew pathogen Podosphaera leucotricha.”
Evaluation is carried out 7 days after the inoculation. 0% means an efficacy which corresponds to that of the control, whereas an efficacy of 100% means that no infection is observed.

[1] = bean plants, protective spray, active compound concentration 250 ppm, evaluation two days after inoculation
[2] = apple plants, protective spray, active compound concentration 100 ppm, evaluation 10 days after inoculation
[3] = bean plants, protective spray, active compound concentration 10 ppm, evaluation 10 days after inoculation
[4] = wheat plants, protective spray, active compound concentration 1000 ppm, evaluation 10 days after inoculation
[5] = cucumber plants, protective spray, active compound concentration 100 ppm, evaluation 7 days after inoculation

## 4-[(4′-fluorobiphenyl-4-yl)oxy]-2,5-dimethyl-N-[(1E)-pyrrolidin-1-ylmethylene]aniline [Compound 30]
logP (acidic, pH 2.3); acidic
  logP acidic: 2.62

## Cc1cc(Oc2ccc(Br)cc2)c(C)cc1N [4-(4-Bromophenoxy)-2,5-dimethylaniline]
logP (acidic, pH 2.3); pH 2.3, log P (pH 2.3), pH 2.3
  logP: 2.88

## Cc1cc(Oc2ccc(C3CCCCC3)cc2)c(C)cc1N [4-(4-Cyclohexylphenoxy)-2,5-dimethylaniline]
logP (acidic, pH 2.3); pH 2.3, log P (pH 2.3), pH 2.3
  logP: 4.25

## COc1ccc(-c2ccc(Oc3cc(C)c(N)cc3C)cc2)cc1 [4-[4-(4-Methoxyphenyl)phenoxy]-2,5-dimethylaniline]
logP (acidic, pH 2.3); pH 2.3, log P (pH 2.3), pH 2.3
  logP: 3.06

## CCN(C)C=Nc1cc(C)c(Oc2ccc(-c3ccc(Cl)cc3)cc2)cc1C [Compound 1, N′-{4-[(4′-chlorobiphenyl-4-yl)oxy]-2,5-dimethylphenyl}-N-ethyl-N-methylimidoformamide]
Botrytis cinerea; [1]
  pest or weed control at 250 ppm: ≥ 70%
Podosphaera leucotricha; [2]
  pest or weed control at 100 ppm: ≥ 70%
Uromyces appendiculatus; [3]
  pest or weed control at 10 ppm: ≥ 70%
logP (acidic, pH 2.3); pH 2.3, logP acidic, acidic
  logP: 2.95
Puccinia recondita; [4]
  pest or weed control at 1000 ppm: ≥ 70%
Sphaerotheca fuliginea; [5]
  pest or weed control at 100 ppm: ≥ 70%

## CCN(C)C=Nc1cc(C)c(Oc2ccc(-c3ccc(S(=O)(=O)CC)cc3)cc2)cc1C [Compound 2, N-ethyl-N′-(4-{[4′-(ethylsulfonyl)biphenyl-4-yl]oxy}-2,5-dimethylphenyl)-N-methylimidoformamide]
Podosphaera leucotricha; [2]
  pest or weed control at 100 ppm: ≥ 70%
Uromyces appendiculatus; [3]
  pest or weed control at 10 ppm: ≥ 70%
logP (acidic, pH 2.3); pH 2.3, logP acidic, acidic
  logP: 2.06
Puccinia recondita; [4]
  pest or weed control at 1000 ppm: ≥ 70%
Sphaerotheca fuliginea; [5]
  pest or weed control at 100 ppm: ≥ 70%

## CCN(C)C=Nc1cc(C)c(Oc2ccc(-c3ccc(C(F)(F)F)cc3)cc2)cc1C [Compound 3, N′-(2,5-dimethyl-4-{[4′-(trifluoromethyl)biphenyl-4-yl]oxy}phenyl)-N-ethyl-N-methylimidoformamide]
Botrytis cinerea; [1]
  pest or weed control at 250 ppm: ≥ 70%
Podosphaera leucotricha; [2]
  pest or weed control at 100 ppm: ≥ 70%
logP (acidic, pH 2.3); pH 2.3, logP acidic, acidic
  logP: 2.94
Puccinia recondita; [4]
  pest or weed control at 1000 ppm: ≥ 70%
Sphaerotheca fuliginea; [5]
  pest or weed control at 100 ppm: ≥ 70%

## CCN(C)C=Nc1cc(C)c(Oc2ccc(-c3ccc(N(C)C)cc3)cc2)cc1C [Compound 4, N′-(4-{[4′-(dimethylamino)biphenyl-4-yl]oxy}-2,5-dimethylphenyl)-N-ethyl-N-methylimidoformamide]
logP (acidic, pH 2.3); pH 2.3, logP acidic, acidic
  logP: 2.13

## CCN(C)C=Nc1cc(C)c(Oc2ccc(-c3ccc(OC)cc3)cc2)cc1C [Compound 5, N-ethyl-N′-{4-[(4′-methoxybiphenyl-4-yl)oxy]-2,5-dimethylphenyl}-N-methylimidoformamide]
Botrytis cinerea; [1]
  pest or weed control at 250 ppm: ≥ 70%
Podosphaera leucotricha; [2]
  pest or weed control at 100 ppm: ≥ 70%
Uromyces appendiculatus; [3]
  pest or weed control at 10 ppm: ≥ 70%
logP (acidic, pH 2.3); pH 2.3, log P (pH 2.3), pH 2.3
  logP: 2.57
logP (acidic, pH 2.3); pH 2.3, logP acidic, acidic
  logP: 2.47
Puccinia recondita; [4]
  pest or weed control at 1000 ppm: ≥ 70%
Sphaerotheca fuliginea; [5]
  pest or weed control at 100 ppm: ≥ 70%

## CCN(C)C=Nc1cc(C)c(Oc2ccc(-c3ccc(C(C)(C)C)cc3)cc2)cc1C [Compound 7, N′-(2,5-dimethyl-4-{[4′-(tert-butyl)biphenyl-4-yl]oxy}phenyl)-N-ethyl-N-methylimidoformamide]
Botrytis cinerea; [1]
  pest or weed control at 250 ppm: ≥ 70%
Podosphaera leucotricha; [2]
  pest or weed control at 100 ppm: ≥ 70%
logP (acidic, pH 2.3); pH 2.3, logP acidic, acidic
  logP: 3.41
Sphaerotheca fuliginea; [5]
  pest or weed control at 100 ppm: ≥ 70%

## CCN(C)C=Nc1cc(C)c(Oc2ccc(-c3ccc(C(C)=O)cc3)cc2)cc1C [Compound 8, N′-{4-[(4′-acetylbiphenyl-4-yl)oxy]-2,5-dimethylphenyl}-N-ethyl-N-methylimidoformamide]
Podosphaera leucotricha; [2]
  pest or weed control at 100 ppm: ≥ 70%
Uromyces appendiculatus; [3]
  pest or weed control at 10 ppm: ≥ 70%
logP (acidic, pH 2.3); pH 2.3, logP acidic, acidic
  logP: 2.32
Sphaerotheca fuliginea; [5]
  pest or weed control at 100 ppm: ≥ 70%

## CCCCO/N=C/c1ccc(-c2ccc(Oc3cc(C)c(N=CN(C)CC)cc3C)cc2)cc1 [Compound 10]
logP (acidic, pH 2.3); pH 2.3
  logP: 3.51

## CCN(C)C=Nc1cc(C)c(Oc2ccc(-c3ccc(/C=N/OC)cc3)cc2)cc1C [Compound 12]
logP (acidic, pH 2.3); pH 2.3
  logP: 2.75

## CCN(C)C=Nc1cc(C)c(Oc2ccc(-c3ccccc3C(F)(F)F)cc2)cc1C [Compound 14]
Botrytis cinerea
  pest or weed control at 250 ppm: ≥ 70%
Podosphaera leucotricha
  pest or weed control at 100 ppm: ≥ 70%
logP (acidic, pH 2.3); pH 2.3
  logP: 2.77
Puccinia recondita
  pest or weed control at 1000 ppm: ≥ 70%
Sphaerotheca fuliginea
  pest or weed control at 100 ppm: ≥ 70%

## CCN(C)C=Nc1cc(C)c(Oc2ccc(-c3ccccc3C(C)C)cc2)cc1C [Compound 15]
Botrytis cinerea
  pest or weed control at 250 ppm: ≥ 70%
Podosphaera leucotricha
  pest or weed control at 100 ppm: ≥ 70%
logP (acidic, pH 2.3); pH 2.3
  logP: 3.06
Puccinia recondita
  pest or weed control at 1000 ppm: ≥ 70%
Sphaerotheca fuliginea
  pest or weed control at 100 ppm: ≥ 70%

## CCN(C)C=Nc1cc(C)c(Oc2ccc(-c3ccccc3OC)cc2)cc1C [Compound 19]
Botrytis cinerea
  pest or weed control at 250 ppm: ≥ 70%
Uromyces appendiculatus
  pest or weed control at 10 ppm: ≥ 70%
logP (acidic, pH 2.3); pH 2.3
  logP: 2.49
Puccinia recondita
  pest or weed control at 1000 ppm: ≥ 70%
Sphaerotheca fuliginea
  pest or weed control at 100 ppm: ≥ 70%

## Cc1cc(Oc2ccc(-c3ccccc3C(F)(F)F)cc2)c(C)cc1/N=C/N1CCCCC1 [Compound 20]
Botrytis cinerea
  pest or weed control at 250 ppm: ≥ 70%
Podosphaera leucotricha
  pest or weed control at 100 ppm: ≥ 70%
logP (acidic, pH 2.3); pH 2.3
  logP: 2.93
Puccinia recondita
  pest or weed control at 1000 ppm: ≥ 70%
Sphaerotheca fuliginea
  pest or weed control at 100 ppm: ≥ 70%

## Cc1cc(Oc2ccc(-c3ccccc3F)cc2)c(C)cc1/N=C/N1CCCCC1 [Compound 21]
logP (acidic, pH 2.3); pH 2.3
  logP: 2.98
Puccinia recondita
  pest or weed control at 1000 ppm: ≥ 70%

## CC(=O)c1ccccc1-c1ccc(Oc2cc(C)c(/N=C/N3CCCCC3)cc2C)cc1 [Compound 22]
Botrytis cinerea
  pest or weed control at 250 ppm: ≥ 70%
Podosphaera leucotricha
  pest or weed control at 100 ppm: ≥ 70%
logP (acidic, pH 2.3); pH 2.3
  logP: 3.52
Sphaerotheca fuliginea
  pest or weed control at 100 ppm: ≥ 70%

## CCc1ccccc1-c1ccc(Oc2cc(C)c(/N=C/N3CCCCC3)cc2C)cc1 [Compound 23]
Botrytis cinerea
  pest or weed control at 250 ppm: ≥ 70%
Podosphaera leucotricha
  pest or weed control at 100 ppm: ≥ 70%
logP (acidic, pH 2.3); pH 2.3
  logP: 3.34
Puccinia recondita
  pest or weed control at 1000 ppm: ≥ 70%
Sphaerotheca fuliginea
  pest or weed control at 100 ppm: ≥ 70%

## Cc1cc(Oc2ccc(-c3ccccc3C)cc2)c(C)cc1/N=C/N1CCCCC1 [Compound 24]
Botrytis cinerea
  pest or weed control at 250 ppm: ≥ 70%
Podosphaera leucotricha
  pest or weed control at 100 ppm: ≥ 70%
logP (acidic, pH 2.3); pH 2.3
  logP: 3.22
Puccinia recondita
  pest or weed control at 1000 ppm: ≥ 70%
Sphaerotheca fuliginea
  pest or weed control at 100 ppm: ≥ 70%

## Cc1cc(Oc2ccc(-c3ccccc3C(C)C)cc2)c(C)cc1/N=C/N1CCCCC1 [Compound 25]
Botrytis cinerea
  pest or weed control at 250 ppm: ≥ 70%
Podosphaera leucotricha
  pest or weed control at 100 ppm: ≥ 70%
Uromyces appendiculatus
  pest or weed control at 10 ppm: ≥ 70%
logP (acidic, pH 2.3); pH 2.3
  logP: 2.46
Sphaerotheca fuliginea
  pest or weed control at 100 ppm: ≥ 70%

## Cc1cc(Oc2ccc(-c3ccccc3Cl)cc2)c(C)cc1/N=C/N1CCCCC1 [Compound 26]
Botrytis cinerea
  pest or weed control at 250 ppm: ≥ 70%
Podosphaera leucotricha
  pest or weed control at 100 ppm: ≥ 70%
logP (acidic, pH 2.3); pH 2.3
  logP: 2.77
Puccinia recondita
  pest or weed control at 1000 ppm: ≥ 70%
Sphaerotheca fuliginea
  pest or weed control at 100 ppm: ≥ 70%

## Cc1cc(Oc2ccc(-c3ccccc3OCC(C)C)cc2)c(C)cc1/N=C/N1CCCCC1 [Compound 28, 4-[(2′-isobutoxybiphenyl-4-yl)oxy]-2,5-dimethyl-N-[(1E)-piperidin-1-ylmethylene]aniline]
logP (acidic, pH 2.3); pH 2.3, logP acidic, acidic
  logP: 3.44

## CCN(C)C=Nc1cc(C)c(Oc2ccc(-c3ccccc3OCC(C)C)cc2)cc1C [Compound 29, N-ethyl-N′-{4-[(2′-isobutoxybiphenyl-4-yl)oxy]-2,5-dimethylphenyl}-N-methylimidoformamide]
logP (acidic, pH 2.3); pH 2.3, logP acidic, acidic
  logP: 3.14

## CCN(C)C=Nc1cc(C)c(Oc2ccc(-c3ccccc3)cc2)cc1C [Compound 31, N′-[4-(biphenyl-4-yloxy)-2,5-dimethylphenyl]-N-ethyl-N-methylimidoformamide]
logP (acidic, pH 2.3); pH 2.3, logP acidic, acidic
  logP: 2.64

## Cc1cc(Oc2ccc(C3CCCC3)cc2)c(C)cc1/N=C/N1CCCCC1C (centres unmarked) [Compound 34, 4-(4-cyclopentylphenoxy)-2,5-dimethyl-N-[(1E)-(2-methylpiperidin-1-yl)methylene]aniline]
logP (acidic, pH 2.3); pH 2.3, logP acidic, acidic
  logP: 3.22
Puccinia recondita; [4]
  pest or weed control at 1000 ppm: ≥ 70%

## Cc1cc(Oc2ccc(C3CCCC3)cc2)c(C)cc1/N=C/N1CCCCC1 [Compound 35, 4-(4-cyclopentylphenoxy)-2,5-dimethyl-N-[(1E)-piperidin-1-ylmethylene]aniline]
Botrytis cinerea; [1]
  pest or weed control at 250 ppm: ≥ 70%
Uromyces appendiculatus; [3]
  pest or weed control at 10 ppm: ≥ 70%
logP (acidic, pH 2.3); pH 2.3, logP acidic, acidic
  logP: 3.13
Puccinia recondita; [4]
  pest or weed control at 1000 ppm: ≥ 70%
Sphaerotheca fuliginea; [5]
  pest or weed control at 100 ppm: ≥ 70%

## Cc1cc(Oc2ccc(C3CCCCC3)cc2)c(C)cc1N=CN(C)C(C)C [Compound 39, N′-{4-[4-cyclohexyl-phenoxy]-2,5-dimethylphenyl}-N-isopropyl-N-methylimidoformamide]
logP (acidic, pH 2.3); pH 2.3, logP acidic, acidic
  logP: 3.2
